Experiment: xn = mol fraction of the nth substance listed
Settings: 101 kPa, Liquid

CCCCn1cc[n+](C)c1.N#C[S-] [1-butyl-3-methylimidazolium thiocyanate] + CCCCCCCCCCO
Settings | mass density [kg/m3] | viscosity [mPa·s]
298.15 K, x1 = 0.0747 | 843.95 | 13.07
298.15 K, x1 = 0.1621 | 864.67 | 15.5
298.15 K, x1 = 0.2537 | 886.57 | 18.67
298.15 K, x1 = 0.3512 | 910.03 | 22.48
298.15 K, x1 = 0.4924 | 944.3 | 28.36
298.15 K, x1 = 0.5922 | 968.81 | 32.87
298.15 K, x1 = 0.6659 | 987.05 | 36.09
298.15 K, x1 = 0.7576 | 1009.83 | 40
298.15 K, x1 = 0.8692 | 1037.62 | 45.01
298.15 K, x1 = 0.9587 | 1059.8 | 49.31
298.15 K, x1 = 1 | 1069.79 | 51.74
308.15 K, x1 = 0.0747 | 837.19 | 9.168
308.15 K, x1 = 0.1621 | 857.99 | 10.96
308.15 K, x1 = 0.2537 | 879.95 | 13.08
308.15 K, x1 = 0.3512 | 903.51 | 15.62
308.15 K, x1 = 0.4924 | 938.02 | 19.52
308.15 K, x1 = 0.5922 | 962.63 | 22.29
308.15 K, x1 = 0.6659 | 981.01 | 24.5
308.15 K, x1 = 0.7576 | 1003.83 | 27.12
308.15 K, x1 = 0.8692 | 1031.69 | 30.46
308.15 K, x1 = 0.9587 | 1053.86 | 33.3
308.15 K, x1 = 1 | 1063.89 | 34.87
318.15 K, x1 = 0.0747 | 830.4 | 6.582
318.15 K, x1 = 0.1621 | 851.35 | 7.964
318.15 K, x1 = 0.2537 | 873.42 | 9.541
318.15 K, x1 = 0.3512 | 897.08 | 11.39
318.15 K, x1 = 0.4924 | 931.78 | 14.06
318.15 K, x1 = 0.5922 | 956.5 | 16.04
318.15 K, x1 = 0.6659 | 974.94 | 17.59
318.15 K, x1 = 0.7576 | 997.87 | 19.4
318.15 K, x1 = 0.8692 | 1025.8 | 21.56
318.15 K, x1 = 0.9587 | 1048.02 | 23.3
318.15 K, x1 = 1 | 1058.02 | 24.19
328.15 K, x1 = 0.0747 | 823.59 | 4.88
328.15 K, x1 = 0.1621 | 844.7 | 5.959
328.15 K, x1 = 0.2537 | 866.89 | 7.162
328.15 K, x1 = 0.3512 | 890.79 | 8.553
328.15 K, x1 = 0.4924 | 925.54 | 10.62
328.15 K, x1 = 0.5922 | 950.4 | 11.98
328.15 K, x1 = 0.6659 | 968.92 | 12.98
328.15 K, x1 = 0.7576 | 991.96 | 14.04
328.15 K, x1 = 0.8692 | 1019.98 | 15.15
328.15 K, x1 = 0.9587 | 1042.2 | 16.1
328.15 K, x1 = 1 | 1052.19 | 16.7
338.15 K, x1 = 0.0747 | 816.7 | 3.741
338.15 K, x1 = 0.1621 | 838 | 4.567
338.15 K, x1 = 0.2537 | 860.36 | 5.526
338.15 K, x1 = 0.3512 | 884.37 | 6.586
338.15 K, x1 = 0.4924 | 919.35 | 8.183
338.15 K, x1 = 0.5922 | 944.32 | 9.243
338.15 K, x1 = 0.6659 | 962.91 | 9.998
338.15 K, x1 = 0.7576 | 986.05 | 10.76
338.15 K, x1 = 0.8692 | 1014.18 | 11.46
338.15 K, x1 = 0.9587 | 1036.43 | 12.18
338.15 K, x1 = 1 | 1046.43 | 12.73
348.15 K, x1 = 0.0747 | 809.76 | 2.909
348.15 K, x1 = 0.1621 | 831.23 | 3.578
348.15 K, x1 = 0.2537 | 853.79 | 4.411
348.15 K, x1 = 0.3512 | 877.97 | 5.195
348.15 K, x1 = 0.4924 | 913.13 | 6.455
348.15 K, x1 = 0.5922 | 938.26 | 7.278
348.15 K, x1 = 0.6659 | 956.95 | 7.875
348.15 K, x1 = 0.7576 | 980.21 | 8.487
348.15 K, x1 = 0.8692 | 1008.43 | 9.047
348.15 K, x1 = 0.9587 | 1030.7 | 9.624
348.15 K, x1 = 1 | 1040.7 | 9.98

CCCCn1cc[n+](C)c1.N#C[S-] [1-butyl-3-methylimidazolium thiocyanate] + CCCCCCCCO
Settings | mass density [kg/m3] | viscosity [mPa·s]
298.15 K, x1 = 0.0874 | 847.17 | 9.062
298.15 K, x1 = 0.1352 | 860.64 | 10.03
298.15 K, x1 = 0.2208 | 884.32 | 12.08
298.15 K, x1 = 0.3599 | 921.24 | 16.3
298.15 K, x1 = 0.4693 | 949.07 | 20.44
298.15 K, x1 = 0.5739 | 974.82 | 24.86
298.15 K, x1 = 0.675 | 998.86 | 29.44
298.15 K, x1 = 0.7673 | 1020.12 | –
298.15 K, x1 = 0.8721 | 1043.42 | 39.69
298.15 K, x1 = 0.9619 | 1062.27 | 45.09
298.15 K, x1 = 1 | 1069.79 | 51.74
308.15 K, x1 = 0.0874 | 840.37 | 6.504
308.15 K, x1 = 0.1352 | 853.92 | 7.237
308.15 K, x1 = 0.2208 | 877.72 | 8.726
308.15 K, x1 = 0.3599 | 914.82 | 11.7
308.15 K, x1 = 0.4693 | 942.78 | 14.47
308.15 K, x1 = 0.5739 | 968.64 | 17.39
308.15 K, x1 = 0.675 | 992.79 | 20.38
308.15 K, x1 = 0.7673 | 1014.13 | –
308.15 K, x1 = 0.8721 | 1037.47 | 26.63
308.15 K, x1 = 0.9619 | 1056.33 | 29.99
308.15 K, x1 = 1 | 1063.89 | 34.87
318.15 K, x1 = 0.0874 | 833.52 | 4.842
318.15 K, x1 = 0.1352 | 847.19 | 5.396
318.15 K, x1 = 0.2208 | 871.11 | 6.516
318.15 K, x1 = 0.3599 | 908.42 | 8.719
318.15 K, x1 = 0.4693 | 936.52 | 10.67
318.15 K, x1 = 0.5739 | 962.5 | 12.72
318.15 K, x1 = 0.675 | 986.77 | 14.79
318.15 K, x1 = 0.7673 | 1008.17 | –
318.15 K, x1 = 0.8721 | 1031.58 | 18.95
318.15 K, x1 = 0.9619 | 1050.45 | 21.14
318.15 K, x1 = 1 | 1058.02 | 24.19
328.15 K, x1 = 0.0874 | 826.65 | 3.691
328.15 K, x1 = 0.1352 | 840.37 | 4.158
328.15 K, x1 = 0.2208 | 864.48 | 5.003
328.15 K, x1 = 0.3599 | 902.01 | 6.654
328.15 K, x1 = 0.4693 | 930.28 | 8.141
328.15 K, x1 = 0.5739 | 956.41 | 9.644
328.15 K, x1 = 0.675 | 980.77 | 11.14
328.15 K, x1 = 0.7673 | 1002.28 | –
328.15 K, x1 = 0.8721 | 1025.72 | 14.06
328.15 K, x1 = 0.9619 | 1044.62 | 15.59
328.15 K, x1 = 1 | 1052.19 | 16.7
338.15 K, x1 = 0.0874 | 819.63 | 2.884
338.15 K, x1 = 0.1352 | 833.53 | 3.272
338.15 K, x1 = 0.2208 | 857.82 | 3.928
338.15 K, x1 = 0.3599 | 895.62 | 5.233
338.15 K, x1 = 0.4693 | 924.05 | 6.379
338.15 K, x1 = 0.5739 | 950.33 | 7.509
338.15 K, x1 = 0.675 | 974.82 | 8.648
338.15 K, x1 = 0.7673 | 996.4 | –
338.15 K, x1 = 0.8721 | 1019.88 | 10.82
338.15 K, x1 = 0.9619 | 1038.82 | 11.94
338.15 K, x1 = 1 | 1046.43 | 12.73
348.15 K, x1 = 0.0874 | 812.55 | 2.306
348.15 K, x1 = 0.1352 | 826.58 | 2.633
348.15 K, x1 = 0.2208 | 851.13 | 3.171
348.15 K, x1 = 0.3599 | 889.21 | 4.233
348.15 K, x1 = 0.4693 | 917.85 | 5.1
348.15 K, x1 = 0.5739 | 944.27 | 5.987
348.15 K, x1 = 0.675 | 968.89 | 6.874
348.15 K, x1 = 0.7673 | 990.57 | –
348.15 K, x1 = 0.8721 | 1014.14 | 8.592
348.15 K, x1 = 0.9619 | 1033.09 | 9.462
348.15 K, x1 = 1 | 1040.7 | 9.98

Reference: the NIST ThermoML archive (doi:10.1021/je901043q)
